Measured values reported in ChEMBL document CHEMBL5579824, “Novel Hsp90-Targeting PROTACs: Enhanced synergy with cisplatin in combination therapy of cervical cancer” (Eur J Med Chem, 2024).
The source made the active and inactive calls. No cut-off for these calls is given here.

Columns and labels:
[1] = molecular target: T1, Protein cereblon/Heat shock protein HSP 90-alpha/Heat shock protein HSP 90-beta (Homo sapiens) (UniProt P07900+P08238+Q96SW2); assay: Protac activity at CRBN/Hsp90 in human Ca-Ski cells assessed as induction of Hsp90 degradation (causing hook effect) at > 0.075 uM incubated for 10 hrs by Western blot analysis; assay type: cell-based
SiHa [2] = assay: Induction of cell cycle arrest in human SiHa cells assessed as accumulation of cells at S pahse at 2.5 uM incubated after 48 hrs by PI staining based flow cytometry (reference value: 8.51 %); assay type: functional
SiHa [3] = assay: Synergistic antiproliferative activity against human SiHa cells assessed as combination index at 0.05 uM incubated for 72 hrs in presence of 10 uM cisplatin by CCK-8 assay; assay type: functional
SiHa [4] = assay: Synergistic antiproliferative activity against human SiHa cells assessed as combination index at 0.5 uM incubated for 72 hrs in presence of 31.62 uM cisplatin by CCK-8 assay; assay type: functional
SiHa [5] = assay: Synergistic antiproliferative activity against human SiHa cells assessed as combination index at 1 uM incubated for 72 hrs in presence of 31.62 uM cisplatin by CCK-8 assay; assay type: functional
SiHa [6] = assay: Synergistic antiproliferative activity against human SiHa cells assessed as combination index at 10 uM incubated for 72 hrs in presence of 31.62 uM cisplatin by CCK-8 assay; assay type: functional
SiHa [7] = assay: Synergistic antiproliferative activity against human SiHa cells assessed as combination index at 0.05 uM incubated for 72 hrs in presence of 0.32 uM cisplatin by CCK-8 assay; assay type: functional
SiHa [8] = assay: Synergistic antiproliferative activity against human SiHa cells assessed as combination index at 0.05 uM incubated for 72 hrs in presence of 0.1 uM cisplatin by CCK-8 assay; assay type: functional
[9] = molecular target: T1, Protein cereblon/Heat shock protein HSP 90-alpha/Heat shock protein HSP 90-beta (Homo sapiens); assay: Protac activity at CRBN/Hsp90 in human SiHa cells assessed as induction of Hsp90 degradation at 0.05 uM incubated for 2 hrs in presence of SNX-5422 by Western blot analysis; assay type: cell-based
[10] = molecular target: T1, Protein cereblon/Heat shock protein HSP 90-alpha/Heat shock protein HSP 90-beta (Homo sapiens); assay: Protac activity at CRBN/Hsp90 in human Ca-Ski cells assessed as induction of Hsp90 degradation at 0.05 uM incubated for 10 hrs by Western blot analysis; assay type: cell-based
SiHa [11] = assay: Antitumor activity against human SiHa cells xenografted in BALB/c nude mouse assessed as tumor growth inhibition at 2 mg/kg, ip; assay type: functional, organism-based
SiHa [12] = assay: Synergistic antiproliferative activity against human SiHa cells assessed as combination index at 0.05 uM incubated for 72 hrs in presence of 3.16 uM cisplatin by CCK-8 assay; assay type: functional
[13] = molecular target: T1, Protein cereblon/Heat shock protein HSP 90-alpha/Heat shock protein HSP 90-beta (Homo sapiens); assay: Protac activity at CRBN/Hsp90 in human SiHa cells assessed as induction of Hsp90 degradation at 0.05 uM incubated for 2 hrs in presence of lenalidomide by Western blot analysis; assay type: cell-based
[14] = molecular target: Serine/threonine-protein kinase mTOR (Homo sapiens) (UniProt P42345); assay: Inhibition of mTOR phosphorylation in human SiHa cells incubated for 10 hrs by Western blot analysis; assay type: cell-based; settings: dose 0.01-1 µM
SiHa [15] = assay: Induction of apoptosis in human SiHa cells assessed as viable cells at 1 uM incubated after 48 hrs by annexin V-FITC/PI staining based flow cytometry (reference value: 90.4 %); assay type: functional; settings: read-out: Activity
SiHa [16] = assay: Induction of apoptosis in human SiHa cells assessed as necrotic cells at 0.05 uM incubated after 48 hrs by annexin V-FITC/PI staining based flow cytometry (reference value: 0.08 %); assay type: functional
SiHa [17] = assay: Synergistic antiproliferative activity against human SiHa cells assessed as combination index at 5 uM incubated for 72 hrs in presence of 3.16 uM cisplatin by CCK-8 assay; assay type: functional
SiHa [18] = assay: Synergistic antiproliferative activity against human SiHa cells assessed as combination index at 10 uM incubated for 72 hrs in presence of 0.03 uM cisplatin by CCK-8 assay; assay type: functional
[19] = molecular target: T1, Protein cereblon/Heat shock protein HSP 90-alpha/Heat shock protein HSP 90-beta (Homo sapiens); assay: Protac activity at CRBN/Hsp90 in human SiHa cells assessed as induction of Hsp90 degradation at 0.05 uM incubated for 2 hrs in presence of MG-132 by Western blot analysis; assay type: cell-based
SiHa [20] = assay: Synergistic antiproliferative activity against human SiHa cells assessed as combination index at 0.5 uM incubated for 72 hrs in presence of 0.03 uM cisplatin by CCK-8 assay; assay type: functional
SiHa [21] = assay: Synergistic antiproliferative activity against human SiHa cells assessed as combination index at 0.1 uM incubated for 72 hrs in presence of 0.1 uM cisplatin by CCK-8 assay; assay type: functional
SiHa [22] = assay: Synergistic antiproliferative activity against human SiHa cells assessed as combination index at 5 uM incubated for 72 hrs in presence of 0.01 uM cisplatin by CCK-8 assay; assay type: functional
SiHa [23] = assay: Induction of cell cycle arrest in human SiHa cells assessed as accumulation of cells at G1 pahse at 10 uM incubated after 48 hrs by PI staining based flow cytometry (reference value: 83.90 %); assay type: functional
SiHa [24] = assay: Synergistic antiproliferative activity against human SiHa cells assessed as combination index at 0.05 uM incubated for 72 hrs in presence of 0.01 uM cisplatin by CCK-8 assay; assay type: functional
[25] = molecular target: Serine/threonine-protein kinase AKT (Homo sapiens) (UniProt P31751+Q9Y243+P31749); assay: Inhibition of AKT phosphorylation in human SiHa cells incubated for 10 hrs by Western blot analysis; assay type: cell-based; settings: dose 0.01-1 µM
SiHa [26] = assay: Synergistic antiproliferative activity against human SiHa cells assessed as combination index at 10 uM incubated for 72 hrs in presence of 10 uM cisplatin by CCK-8 assay; assay type: functional
SiHa [27] = assay: Synergistic antiproliferative activity against human SiHa cells assessed as combination index at 0.1 uM incubated for 72 hrs in presence of 31.62 uM cisplatin by CCK-8 assay; assay type: functional
SiHa [28] = assay: Synergistic antiproliferative activity against human SiHa cells assessed as combination index at 0.75 uM incubated for 72 hrs in presence of 0.03 uM cisplatin by CCK-8 assay; assay type: functional
SiHa [29] = assay: Induction of apoptosis in human SiHa cells assessed as increase in apoptotic cells incubated after 48 hrs by annexin V-FITC/PI staining based flow cytometry; assay type: functional, cell-based; settings: dose 0.05-10 µM
[30] = molecular target: T1, Protein cereblon/Heat shock protein HSP 90-alpha/Heat shock protein HSP 90-beta (Homo sapiens); assay: Protac activity at CRBN/Hsp90 in human SiHa cells assessed as induction of Hsp90 degradation at 1 uM incubated for 36 hrs by Western blot analysis; assay type: cell-based
SiHa [31] = assay: Synergistic antiproliferative activity against human SiHa cells assessed as combination index at 0.1 uM incubated for 72 hrs in presence of 0.03 uM cisplatin by CCK-8 assay; assay type: functional
SiHa [32] = assay: Synergistic antiproliferative activity against human SiHa cells assessed as combination index at 0.05 uM incubated for 72 hrs in presence of 31.62 uM cisplatin by CCK-8 assay; assay type: functional
[33] = Toxicity in BALB/c nude mouse xenografted with human SiHa cells assessed as body weight weight loss at 2 mg/kg, ip co-treated with cisplatin separately for every two days; assay type: organism-based; settings: in vivo
SiHa [34] = assay: Antiproliferative activity against human SiHa cells assessed as reduction in cell viability incubated for 72 hrs by CCK-8 assay; assay type: functional, cell-based

Sequence of Serine/threonine-protein kinase AKT (Homo sapiens) (P31749 whole entry, looked up): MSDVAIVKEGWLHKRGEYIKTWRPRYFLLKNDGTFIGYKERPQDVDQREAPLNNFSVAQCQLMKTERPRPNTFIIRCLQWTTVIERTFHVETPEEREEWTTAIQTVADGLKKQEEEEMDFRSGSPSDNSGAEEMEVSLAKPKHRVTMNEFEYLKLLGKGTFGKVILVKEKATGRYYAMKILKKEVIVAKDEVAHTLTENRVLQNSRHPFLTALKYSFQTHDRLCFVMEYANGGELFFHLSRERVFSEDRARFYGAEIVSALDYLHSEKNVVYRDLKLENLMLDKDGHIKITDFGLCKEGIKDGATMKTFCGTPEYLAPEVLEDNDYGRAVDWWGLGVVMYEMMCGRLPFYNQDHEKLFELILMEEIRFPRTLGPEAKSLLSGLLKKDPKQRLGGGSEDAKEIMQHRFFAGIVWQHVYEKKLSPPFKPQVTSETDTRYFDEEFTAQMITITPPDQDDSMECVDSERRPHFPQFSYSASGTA
Sequence of Serine/threonine-protein kinase AKT (Homo sapiens) (P31751 whole entry, looked up): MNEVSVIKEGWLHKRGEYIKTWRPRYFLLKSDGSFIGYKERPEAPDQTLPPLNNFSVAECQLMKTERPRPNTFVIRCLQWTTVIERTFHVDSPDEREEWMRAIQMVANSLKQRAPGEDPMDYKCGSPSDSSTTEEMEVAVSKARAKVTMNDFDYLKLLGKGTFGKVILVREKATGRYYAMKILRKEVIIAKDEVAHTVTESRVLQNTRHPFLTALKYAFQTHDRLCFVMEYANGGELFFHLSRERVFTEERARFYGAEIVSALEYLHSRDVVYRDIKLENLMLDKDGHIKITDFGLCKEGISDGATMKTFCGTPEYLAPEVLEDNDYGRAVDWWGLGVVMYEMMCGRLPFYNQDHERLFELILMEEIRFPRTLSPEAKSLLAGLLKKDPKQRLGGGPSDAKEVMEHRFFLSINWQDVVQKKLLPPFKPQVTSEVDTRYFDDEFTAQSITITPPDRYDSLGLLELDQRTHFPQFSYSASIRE
Sequence of Serine/threonine-protein kinase AKT (Homo sapiens) (Q9Y243 whole entry, looked up): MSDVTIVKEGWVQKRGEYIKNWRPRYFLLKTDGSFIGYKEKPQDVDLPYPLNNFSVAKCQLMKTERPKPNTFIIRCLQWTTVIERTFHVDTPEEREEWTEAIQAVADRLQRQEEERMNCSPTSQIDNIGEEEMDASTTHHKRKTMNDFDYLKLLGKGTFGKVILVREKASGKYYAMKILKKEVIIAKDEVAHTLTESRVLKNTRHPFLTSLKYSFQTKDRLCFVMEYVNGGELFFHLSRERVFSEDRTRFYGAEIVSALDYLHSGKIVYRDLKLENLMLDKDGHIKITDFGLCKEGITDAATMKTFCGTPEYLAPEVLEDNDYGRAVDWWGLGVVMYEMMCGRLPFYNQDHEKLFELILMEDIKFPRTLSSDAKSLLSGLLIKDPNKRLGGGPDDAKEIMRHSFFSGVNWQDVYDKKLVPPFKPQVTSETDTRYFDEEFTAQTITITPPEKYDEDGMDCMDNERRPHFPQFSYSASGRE

In the case of `CC1(C)CC(=O)c2c(C(F)(F)F)nn(-c3ccc(C(N)=O)c(N[C@H]4CC[C@H](OC(=O)CNC(=O)CCCCCCCNc5cccc6c5CN(C5CCC(=O)NC5=O)C6=O)CC4)c3)c2C1` (some centres undefined), the Activity [1] is reported as “inactive”, the Activity (SiHa [2]) is reported as 21.18% and the CI (SiHa [3]) is reported as 1.26. For the same compound, the CI (SiHa [4]) was 0.26, the CI (SiHa [5]) was 0.27 and the CI (SiHa [6]) was 0.97. The CI (SiHa [7]) was 0.38, the CI (SiHa [8]) was 0.36 and the Activity [9] was “inactive”. For the same compound, the Activity [10] was “Active”, the TGI (SiHa [11]) was “Active” and the CI (SiHa [12]) was 1.01. For the same compound, the Activity [13] was “inactive”, the inhibition [14] was “Active” and the viability at 1 µM (SiHa [15]) was 59%. It also gave an Activity (SiHa [16]) of 0.1%, a CI (SiHa [17]) of 0.65 and a CI (SiHa [18]) of 2.11. For the same compound, the Activity [19] was “inactive”, the CI (SiHa [20]) was 0.14 and the CI (SiHa [21]) was 0.49. For the same compound, the CI (SiHa [22]) was 1.02, the Activity (SiHa [23]) was 62.26% and the CI (SiHa [24]) was 1.83. The inhibition [25] was “Active”, the CI (SiHa [26]) was 1.1 and the CI (SiHa [27]) was 0.24. The CI (SiHa [28]) was 0.19, the Activity (SiHa [29]) was “Dose-Dependent Effect” and the Activity [30] was “inactive”. For the same compound, the CI (SiHa [31]) was 0.49, the CI (SiHa [32]) was 0.25 and the Activity [33] was “Non-Toxic”. For the same compound, the IC50 (SiHa [34]) was 50 nM.
